By IC50 is commonly meant the point on the concentration scale where inhibition reaches its midpoint. High values mean lower potency, low ones higher potency.

The results in this text go back to patent publication US11584734B2, “Tricyclic compounds as histone methyltransferase inhibitors” (GLOBAL BLOOD THERAPEUTICS, INC., priority 2017, dated 2023).

Counter-ions that a name gives are not always drawn.

The target of this assay is T1, G9a (Homo sapiens, UniProt Q96KQ7).
T1 sequence (Q96KQ7 1-1210): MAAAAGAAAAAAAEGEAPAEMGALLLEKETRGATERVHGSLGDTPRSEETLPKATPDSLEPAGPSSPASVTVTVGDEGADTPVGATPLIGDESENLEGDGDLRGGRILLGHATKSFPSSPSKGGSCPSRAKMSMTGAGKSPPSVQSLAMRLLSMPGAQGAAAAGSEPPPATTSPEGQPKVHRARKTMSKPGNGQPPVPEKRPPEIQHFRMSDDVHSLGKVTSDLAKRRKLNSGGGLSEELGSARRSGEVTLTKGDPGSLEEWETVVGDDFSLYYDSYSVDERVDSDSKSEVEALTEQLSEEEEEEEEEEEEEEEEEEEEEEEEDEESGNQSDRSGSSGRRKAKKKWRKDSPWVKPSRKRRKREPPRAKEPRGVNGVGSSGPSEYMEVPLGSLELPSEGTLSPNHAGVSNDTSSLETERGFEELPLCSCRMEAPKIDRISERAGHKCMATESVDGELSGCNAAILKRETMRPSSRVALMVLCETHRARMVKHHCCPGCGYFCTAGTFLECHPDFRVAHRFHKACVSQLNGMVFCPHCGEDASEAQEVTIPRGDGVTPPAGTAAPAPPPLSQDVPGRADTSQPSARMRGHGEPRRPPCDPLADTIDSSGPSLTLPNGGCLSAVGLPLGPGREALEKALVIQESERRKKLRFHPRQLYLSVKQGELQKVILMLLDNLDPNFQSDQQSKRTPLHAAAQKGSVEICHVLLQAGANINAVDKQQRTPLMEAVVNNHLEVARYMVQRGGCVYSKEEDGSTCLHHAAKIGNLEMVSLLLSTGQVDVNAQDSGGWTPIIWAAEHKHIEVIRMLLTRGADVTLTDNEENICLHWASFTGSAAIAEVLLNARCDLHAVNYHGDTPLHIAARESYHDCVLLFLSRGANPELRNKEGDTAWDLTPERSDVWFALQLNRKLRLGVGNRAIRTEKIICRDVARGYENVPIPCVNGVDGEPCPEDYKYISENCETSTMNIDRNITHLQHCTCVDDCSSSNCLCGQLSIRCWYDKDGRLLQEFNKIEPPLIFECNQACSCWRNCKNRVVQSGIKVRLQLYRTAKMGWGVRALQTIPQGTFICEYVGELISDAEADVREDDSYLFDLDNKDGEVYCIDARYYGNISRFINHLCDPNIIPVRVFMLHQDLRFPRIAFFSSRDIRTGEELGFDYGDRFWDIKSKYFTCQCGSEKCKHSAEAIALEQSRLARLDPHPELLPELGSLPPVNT
Briefly: G9a AlphaLISA enzymatic activity assay. Type of assay: biochemical. The note with it: negative log of IC50 in molar, 0.15 nM G9a, 15 uM S-adenosyl-methionine, 100 nM biotinylated histone 3 peptide (1-21). The text has this: The G9a AlphaLISA assay was used to detect the methyl modifications of a biotinylated histone H3 peptide by the compounds. These modifications are done by the histone methyl transferase activity of the G9a enzyme. The assay consists of reading a chemiluminescent signal at 615 nm; this signal is generated by a laser excitation at 680 nm that transfers a reactive singlet oxygen between the donor beads and acceptor beads. Donor beads are streptavidin conjugated and bind to the biotin on the peptide. Acceptor beads are conjugated with an antibody that recognizes the specific G9a methyl mark on the peptide. If there is a methyl mark on the peptide, the acceptor beads will bind to the peptide. Upon binding, the acceptor beads will be in close proximity (<200 nm) of the donor beads and when the donor beads are excited, the transfer of the oxygen can occur and a strong signal will be generated. If there is no methyl mark, the interaction between beads will not occur and signal will be at background levels.
For the assay, the following buffer was used to set up reactions: 50 mM Tris-HCl pH9, 50 mM NaCl, 0.01% Tween-20 and 1 mM DTT (added fresh prior to starting the reactions). […] The reaction is incubated at rt for 1 hour and subsequently quenched by the addition of the acceptor beads (anti-H3k9me2 AlphaLISA acceptor beads, PerkinElmer #AL117) at a final concentration of 20 ug/mL. The acceptor beads are incubated for 1 hour. After 1 hour, the donor beads are added at a final concentration of 20 ug/mL (Alpha Streptavidin donor beads, PerkinElmer #6760002). Donor beads are incubated for 0.5 hours. Both donor and acceptor beads are resuspended in AlphaLISA 5X Epigenetics Buffer 1 Kit (PerkinElmer #AL008) prior to addition to the reaction. All manipulations and incubations with the donor and acceptor beads are done in subdued light. Signal is detected in an EnVision plate reader in Alpha mode. See ACS Med Chem Lett. 2014; 5(2):205-9.
Percent inhibition was calculated for each compound dilution and the concentration that produced 50% inhibition was calculated. This value is presented as the pIC50, which is the negative log of the IC50 value in molar.
Background: Alpha assays give light when donor and acceptor beads are brought close together.
With `COc1cc2c(NC(C)C)c3c(nc2cc1OCCOCCN(C)C)CCC3` [Example 45, 6-{2-[2-(dimethylamino)ethoxy]ethoxy}-7-methoxy-N-(propan-2-yl)-1H,2H,3H-cyclopenta[b]quinolin-9-amine], the midpoint of inhibition, the IC50, lay at 17.4 nM.

Take `COc1cc2c(NC(C)C)c3c(nc2cc1OCCCN1CCCC1)CC(C)(C)C3` [Example 7, 7-methoxy-2,2-dimethyl-N-(propan-2-yl)-6-[3-(pyrrolidin-1-yl)propoxy]-1H,2H,3H-cyclopenta[b]quinolin-9-amine]: half-maximal inhibition (IC50) required 30.9 nM.

In turn, `CCNc1c2c(nc3cc(OCCCN(C)CCF)c(OC)cc13)CCC2` [Example 56, N-ethyl-6-{3-[(2-fluoroethyl)(methyl)amino]propoxy}-7-methoxy-1H,2H,3H-cyclopenta[b]quinolin-9-amine] had an IC50 of 1050 nM.

As for `CNc1c2c(nc3cc(OCCCN)c(OC)cc13)CCC2` [Example 61, 6-(3-aminopropoxy)-7-methoxy-N-methyl-1H,2H,3H-cyclopenta[b]quinolin-9-amine], half-maximal inhibition (IC50) required 537 nM.

Take `COc1cc2c(NC[C@@H](C)OC)c3c(nc2cc1OCCCN1CCCC1)CCC3` [Example 14, 7-methoxy-N-[(2R)-2-methoxypropyl]-6-[3-(pyrrolidin-1-yl)propoxy]-1H,2H,3H-cyclopenta[b]quinolin-9-amine]: the IC50 was 26.3 nM.

As to `CCOCCNc1c2c(nc3cc(OCCCN(C)CCF)c(OC)cc13)CCC2` [Example 57, N-(2-ethoxyethyl)-6-{3-[(2-fluoroethyl)(methyl)amino]propoxy}-7-methoxy-1H,2H,3H-cyclopenta[b]quinolin-9-amine], the IC50 is 1480 nM.

Turning to `COc1cc2c(NCC3CC3)c3c(nc2cc1OCCOCCN(C)C)CCC3` [Example 63, N-(cyclopropylmethyl)-6-{2-[2-(dimethylamino)ethoxy]ethoxy}-7-methoxy-1H,2H,3H-cyclopenta[b]quinolin-9-amine], the IC50 is 18.2 nM.

The compound `CNc1c2c(nc3cc(OCCC(C)N4CCCC4)c(OC)cc13)CCC2` (stereo not shown) [Example 64, 7-methoxy-N-methyl-6-[3-(pyrrolidin-1-yl)butoxy]-1H,2H,3H-cyclopenta[b]quinolin-9-amine] gave an IC50 of 126 nM.

`COc1cc2c(NCCC(C)(C)O)c3c(nc2cc1OCCCN1CCCC1)CCCCC3` [Example 39, 4-({2-methoxy-3-[3-(pyrrolidin-1-yl)propoxy]-6H,7H,8H,9H,10H-cyclohepta[b]quinolin-11-yl}amino)-2-methylbutan-2-ol] gave an IC50 of 57.5 nM.

`CNc1c2c(nc3cc(OCCCN4C5CCC4CC5)c(OC)cc13)CCC2` [Example 47, 6-(3-{7-azabicyclo[2.2.1]heptan-7-yl}propoxy)-7-methoxy-N-methyl-1H,2H,3H-cyclopenta[b]quinolin-9-amine] showed an IC50 of 1350 nM.

For `CCOCCCNc1c2c(nc3cc(OCCCN4CCCC4)c(OC)cc13)CCC2` [Example 11, N-(3-ethoxypropyl)-7-methoxy-6-[3-(pyrrolidin-1-yl)propoxy]-1H,2H,3H-cyclopenta[b]quinolin-9-amine], the 50% inhibitory concentration (IC50) is 17.4 nM.

`CNc1c2c(nc3cc(OCCCN4CCCC4)c(OC)cc13)C1CCCC2C1` (stereo not shown) [Example 36, 7-methoxy-N-methyl-6-[3-(pyrrolidin-1-yl)propoxy]-3-azatetracyclo[10.3.1.0^{2,11}.0^{4,9}]hexadeca-2,4,6,8,10-pentaen-10-amine]: the midpoint of inhibition, the IC50, lay at 19.5 nM.

For `COCCNc1c2c(nc3cc(OCCCN4CCCC4)c(OC)cc13)CC(C)(C)C2` [Example 8, 7-methoxy-N-(2-methoxyethyl)-2,2-dimethyl-6-[3-(pyrrolidin-1-yl)propoxy]-1H,2H,3H-cyclopenta[b]quinolin-9-amine], the IC50 was 51.3 nM.

For `COCCNc1c2c(nc3cc(OCCCN4CCCC4)c(OC(F)(F)F)cc13)CCC2` [Example 50, N-(2-methoxyethyl)-6-[3-(pyrrolidin-1-yl)propoxy]-7-(trifluoromethoxy)-1H,2H,3H-cyclopenta[b]quinolin-9-amine], the IC50 is 776 nM.

For `CNc1c2c(nc3cc(OCCCN(C)C)c(OC)cc13)CCC2` [Example 71, 6-[3-(dimethylamino)propoxy]-7-methoxy-N-methyl-1H,2H,3H-cyclopenta[b]quinolin-9-amine], the 50% inhibitory concentration (IC50) was 40.7 nM.

`COCCNc1c2c(nc3cc(OCCCN4CCCC4)c(OC)cc13)CCCCC2` [Example 37, 2-methoxy-N-(2-methoxyethyl)-3-[3-(pyrrolidin-1-yl)propoxy]-6H,7H,8H,9H,10H-cyclohepta[b]quinolin-11-amine] had an IC50 of 107 nM.

Turning to `CCCNc1c2c(nc3cc(OCCCN4CCCC4)c(OC(F)F)cc13)CCC2` [Example 31, 7-(difluoromethoxy)-N-propyl-6-[3-(pyrrolidin-1-yl)propoxy]-1H,2H,3H-cyclopenta[b]quinolin-9-amine], 110 nM corresponded to half-maximal inhibition (IC50).

`COCCCNc1c2c(nc3cc(OCCCN4CCCC4)c(OC(F)F)cc13)CCC2` [Example 33, 7-(difluoromethoxy)-N-(3-methoxypropyl)-6-[3-(pyrrolidin-1-yl)propoxy]-1H,2H,3H-cyclopenta[b]quinolin-9-amine] gave an IC50 of 145 nM.

Consider `CNc1c2c(nc3cc(OCCCN4C5CCCC4CC5)c(OC)cc13)CCC2` [Example 69, 6-(3-{8-azabicyclo[3.2.1]octan-8-yl}propoxy)-7-methoxy-N-methyl-1H,2H,3H-cyclopenta[b]quinolin-9-amine], for which the IC50 was 2690 nM.

The compound `CCNc1c2c(nc3cc(OCCCN4CC[C@@H](OC)C4)c(OC)cc13)CCC2` [Example 75, N-ethyl-7-methoxy-6-{3-[(3R)-3-methoxypyrrolidin-1-yl]propoxy}-1H,2H,3H-cyclopenta[b]quinolin-9-amine] gave an IC50 of 52.5 nM.

Compound `Oc1cc2c(NCC3CC3)c3c(nc2cc1OCCCN1CCCC1)CCC3` [Example 2, dihydrochloride] had an IC50 of 158 nM.

Consider `COc1cc2c(NC3CCCNC3)c3c(nc2cc1OCCCN(C)C)CCC3` (stereo not shown) [Example 73, N-{6-[3-(dimethylamino)propoxy]-7-methoxy-1H,2H,3H-cyclopenta[b]quinolin-9-yl}piperidin-3-amine], for which half-maximal inhibition (IC50) required 1.45 nM.

Compound `COc1cc2c(NCCCOC(C)C)c3c(nc2cc1OCCCN1CCCC1)CCC3` [Example 17, 7-methoxy-N-[3-(propan-2-yloxy)propyl]-6-[3-(pyrrolidin-1-yl)propoxy]-1H,2H,3H-cyclopenta[b]quinolin-9-amine] gave a concentration for half-maximal inhibition (IC50) of 19.5 nM.

For the compound `FC(F)Oc1cc2c(NCC3CC3)c3c(nc2cc1OCCCN1CCCC1)CCC3` [Example 42, N-(cyclopropylmethyl)-7-(difluoromethoxy)-6-[3-(pyrrolidin-1-yl)propoxy]-1H,2H,3H-cyclopenta[b]quinolin-9-amine], the concentration for half-maximal inhibition (IC50) is 97.7 nM.

Take `CNc1c2c(nc3cc(OCCCNC(C)=O)c(OC)cc13)CCC2` [Example 46, N-(3-{[7-methoxy-9-(methylamino)-1H,2H,3H-cyclopenta[b]quinolin-6-yl]oxy}propyl)acetamide]: half-maximal inhibition (IC50) was put at 3090 nM.
